The values that follow come from patent US12296053B2, “Nanomaterials comprising triols” (Beam Therapeutics Inc., priority 2022, dated 2025).

A short description of data set [1]: LNP hydrodynamic diameter and polydispersity index by dynamic light scattering (DLS). In kind it is physicochemical. The conditions noted are these: for Diameter (nm): hydrodynamic diameter of the LNP preparation with the ionizable lipid; for PDI: polydispersity index of the LNP preparation with the ionizable lipid. The procedure: (§1) A 3:1 ratio of aqueous to organic solvent was maintained during mixing using differential flow rates. After mixing, LNP preparations were collected and diluted in TBS (approximately 7:1 v/v), and further buffer exchange was conducted using dialysis in TBS at 4° C. for 8 to 24 hours against a 20 kDa filter. After this initial dialysis, each individual LNP preparation was characterized via dynamic light scattering (DLS) to measure size and polydispersity. pKa of a subpopulation of LNP preparations was measured via TNS assay.
DLS-LNP preparation hydrodynamic diameter and polydispersity index (PDI) was measured using high throughput dynamic light scattering (DLS) (DynaPro plate reader II, Wyatt). LNP preparations were diluted 1×PBS to an appropriate concentration and analyzed.

A further data set has as its system ALAS1 target site. The experiment in a line: Base editing in liver by LNP-delivered ABE mRNA and sgRNA, targeted deep sequencing. It counts as in vivo. The following applies: LNP with the ionizable lipid, ABE mRNA + sgRNA targeting ALAS1 1:1; tail vein injection, Balb/c mice; 0.05 mg/kg; tissues four to six days post-dose. The method, then: (§2) Lipid nanoparticle components were dissolved in 100% ethanol at specified lipid component molar ratios. mRNA encoding an adenine base editor and a chemically-modified sgRNA was dissolved at a mass ratio of 1:1 in 50 mM citrate, pH 4.0, resulting in a concentration of NA cargo of approximately 0.1 mg/mL.
(§3) LNP preparations were formulated with molar ratios of 47.5% Ionizable Lipid: 40% Cholesterol: 2.5% PEG2000-DMG: 10% DSPC total lipid to NA molar ratio of 6 to 12.
(§4) LNP preparations were formed by microfluidic mixing of the lipid and NA solutions using Precision Nanosystems NanoAssemblr Ignite series Instruments, according to the manufacturer's protocol.
as §1
Male Balb/C mice aged approximately 8-12 weeks were used in the experiments described herein. […]
Age-matched mice were also used to administer vehicle (1×TBS) via tail vein injection as a control. Four to six days post-dose, tissues including liver, spleen, and bone marrow were collected. Base editing was determined by performing targeted deep sequencing analysis at the ALAS1 target site using extracted genomic DNA. Genomic DNA was isolated and fragmented and adapter-ligated using the Nextera DNA Flex Library Prep Kit (Illumina) using the 96-well plate Nextera indexing primers (Illumina), according to the manufacturer's instructions. Library size and concentration was confirmed by Fragment Analyzer (Agilent) and analyzed for whole genome sequencing using an Illumina HiSeq.

A short description of data set [2]: Encapsulation efficiency of LNP preparations (Ribogreen assay; Qubit, unlysed and lysed LNPs). It counts as physicochemical. The following applies: LNP preparation with the ionizable lipid, ABE mRNA:sgRNA 1:1, except 7-1, 7-2, 7-6, 7-10 (unlysed and lysed LNPs, Qubit). The method, then: as §2, §3, §4
With the exception of LNPs comprising ionizable lipids 7-1, 7-2, 7-6, and 7-10, RNA concentration and encapsulation efficiency were determined by Ribogreen assay (BioTek Synergy LX plate reader). For LNPs comprising ionizable lipids 7-1, 7-2, 7-6, and 7-10, RNA concentration was determined by Qubit microRNA kit (for siRNA) or HS RNA kit (for mRNA) per manufacturer's instructions, and encapsulation efficiency was determined by measuring unlysed and lysed LNPs.

On to `CC/C=C\CCCCOC(CCC(=O)OCC(COC(=O)CCCCCC(=O)OCCC(CCCCC)CCCCC)COC(=O)CCC(CCCCC)OC(=O)NCCN1CCCC1)OCCCC/C=C\CC` (stereo not shown) [Compound 7-27, 1-(3-((4,4-bis(((Z)-oct-5-en-1-yl)oxy)butanoyl)oxy)-2-(((4-(((2-(pyrrolidin-1-yl)ethyl)carbamoyl)oxy)nonanoyl)oxy)methyl)propyl) 7-(3-pentyloctyl) heptanedioate], for which, in data set [1], the “Diameter (nm)” value amounted to 61.25 nm and the PDI is listed as 0.06. The “% Editing in Liver (0.05 mpk)” value in the data set on ALAS1 target site turned out to be 5.3%. For the same molecule, the “Encapsulation Efficiency (%)” value in data set [2] was found to be 96.9%.
Regarding `CC/C=C\CCCCOC(CCC(=O)OCC(COC(=O)CCCCCCOC(=O)C(CCCC)CCCCCC)COC(=O)CCC(CCCCCC)OC(=O)OCC1CCCN(CC)C1)OCCCC/C=C\CC` (stereo not shown) [Compound 7-46, 3-((4,4-bis(((Z)-oct-5-en-1-yl)oxy)butanoyl)oxy)-2-(((7-((2-butyloctanoyl)oxy)heptanoyl)oxy)methyl)propyl 4-((((1-ethylpiperidin-3-yl)methoxy)carbonyl)oxy)decanoate], in data set [1], the “Diameter (nm)” value came to 82.35 nm and the PDI is given as 0.13. Further, in the data set on ALAS1 target site, the “% Editing in Liver (0.05 mpk)” value is listed as 1.1%. The “Encapsulation Efficiency (%)” value in data set [2] is listed as 93.7%.
For `CC/C=C\CCCCOC(CCC(=O)OCC(COC(=O)CCCCCCOC(=O)C(CCCC)CCCCCC)COC(=O)CCC(CCCCCCCC)OC(=O)NCCN1CCCC1)OCCCC/C=C\CC` (stereo not shown) [Compound 7-51, 3-((4,4-bis(((Z)-oct-5-en-1-yl)oxy)butanoyl)oxy)-2-(((7-((2-butyloctanoyl)oxy)heptanoyl)oxy)methyl)propyl 4-(((2-(pyrrolidin-1-yl)ethyl)carbamoyl)oxy)dodecanoate] the same measures were 51.15 nm, 0.08, 1.0% and 96.6%.
Taken in the same sequence, the figures for `CC/C=C\CCCCOC(CCC(=O)OCC(COC(=O)CCCCCCOC(=O)C(CCCC)CCCCCC)COC(=O)CCC(CCCCCCC)OC(=O)NCCN1CCCC1)OCCCC/C=C\CC` (stereo not shown) [Compound 7-50, 3-((4,4-bis(((Z)-oct-5-en-1-yl)oxy)butanoyl)oxy)-2-(((7-((2-butyloctanoyl)oxy)heptanoyl)oxy)methyl)propyl 4-(((2-(pyrrolidin-1-yl)ethyl)carbamoyl)oxy)undecanoate] were 53.45 nm, 0.09, 4.0% and 96.6%.
Taken in the same sequence, the figures for `CC/C=C\CCCCOC(CCC(=O)OCC(COC(=O)CCCCCC(=O)OCCC(CCCCCC)CCCCCC)COC(=O)CCC(CCCCCC)OC(=O)NCCN1CCCC1)OCCCC/C=C\CC` (stereo not shown) [Compound 7-14, 1-(3-((4,4-bis(((Z)-oct-5-en-1-yl)oxy)butanoyl)oxy)-2-(((4-(((2-(pyrrolidin-1-yl)ethyl)carbamoyl)oxy)decanoyl)oxy)methyl)propyl) 7-(3-hexylnonyl) heptanedioate] were 59.40 nm, 0.09, 0.1% and 97.6%.
Consider `CC/C=C\CCCCOC(CCC(=O)OCC(COC(=O)CCCCCCC(=O)OCCC(CCCC)CCCC)COC(=O)CCC(CCCCCC)OC(=O)NCCN1CCCC1)OCCCC/C=C\CC` (stereo not shown) [Compound 7-18, 1-(3-((4,4-bis(((Z)-oct-5-en-1-yl)oxy)butanoyl)oxy)-2-(((4-(((2-(pyrrolidin-1-yl)ethyl)carbamoyl)oxy)decanoyl)oxy)methyl)propyl) 8-(3-butylheptyl) octanedioate], for which, in data set [1], the “Diameter (nm)” value was 55.60 nm and the PDI amounted to 0.08. The “% Editing in Liver (0.05 mpk)” value in the data set with ALAS1 target site was determined as 3.3%. For the same molecule, the “Encapsulation Efficiency (%)” value in data set [2] turned out to be 96.1%.
Taken in the same sequence, the figures for `CC/C=C\CCCCOC(CCC(=O)OCC(COC(=O)CCCCCCOC(=O)C(CCCC)CCCCCC)COC(=O)CCC(CCCC)OC(=O)NCCN1CCCC1)OCCCC/C=C\CC` (stereo not shown) [Compound 7-22, 3-((4,4-bis(((Z)-oct-5-en-1-yl)oxy)butanoyl)oxy)-2-(((7-((2-butyloctanoyl)oxy)heptanoyl)oxy)methyl)propyl 4-(((2-(pyrrolidin-1-yl)ethyl)carbamoyl)oxy)octanoate] were 65.85 nm, 0.06, 5.6% and 97.3%.
Taken in the same sequence, the figures for `CC/C=C\CCCCOC(CCC(=O)OCC(COC(=O)CCCCCCOC(=O)C(CCCC)CCCCCC)COC(=O)CCC(CCCCCC)OC(=O)CCCN1CCCC1)OCCCC/C=C\CC` (stereo not shown) [Compound 7-49, 3-((4,4-bis(((Z)-oct-5-en-1-yl)oxy)butanoyl)oxy)-2-(((7-((2-butyloctanoyl)oxy)heptanoyl)oxy)methyl)propyl 4-((4-(pyrrolidin-1-yl)butanoyl)oxy)decanoate] were 57 nm, 0.06, 6.6% and 96.3%.
As to `CC/C=C\CCCCOC(CCC(=O)OCC(COC(=O)CCCCCCCOC(=O)C(CCCC)CCCCCC)COC(=O)OCC(CCCCCC)OC(=O)NCCN1CCCC1)OCCCC/C=C\CC` (stereo not shown) [Compound 7-8, 12-(((4,4-bis(((Z)-oct-5-en-1-yl)oxy)butanoyl)oxy)methyl)-6-hexyl-4,9,15-trioxo-1-(pyrrolidin-1-yl)-5,8,10,14-tetraoxa-3-azadocosan-22-yl 2-butyloctanoate], in data set [1], the “Diameter (nm)” value turned out to be 62.8 nm and the PDI is recorded as 0.07. The “% Editing in Liver (0.05 mpk)” value in the data set with ALAS1 target site turned out to be 14.8%. Besides, in data set [2], the “Encapsulation Efficiency (%)” value is 95.5%.
For `CCCCCCCCOC(CCC(=O)OCC(COC(=O)CCCCCCOC(=O)C(CCCC)CCCCCC)COC(=O)CCC(CCCCCC)OC(=O)NCCN1CCCC1)OCCCCCCCC` (stereo not shown) [Compound 7-11, 3-((4,4-bis(octyloxy)butanoyl)oxy)-2-(((7-((2-butyloctanoyl)oxy)heptanoyl)oxy)methyl)propyl 4-(((2-(pyrrolidin-1-yl)ethyl)carbamoyl)oxy)decanoate] the same measures were 68.00 nm, 0.10, 13.2% and 99.1%.
Taken in the same sequence, the figures for `CC/C=C\CCCCOC(CCC(=O)OCC(COC(=O)CCCCCCOC(=O)C(CCCC)CCCCCC)COC(=O)CCC(CCCCCC)OC(=O)NCCN(C)C)OCCCC/C=C\CC` (stereo not shown) [Compound 7-40, 3-((4,4-bis(((Z)-oct-5-en-1-yl)oxy)butanoyl)oxy)-2-(((7-((2-butyloctanoyl)oxy)heptanoyl)oxy)methyl)propyl 4-(((2-(dimethylamino)ethyl)carbamoyl)oxy)decanoate] were 54.1 nm, 0.09, 1.9% and 96.8%.
For `CC/C=C\CCCCOC(CCC(=O)OCC(COC(=O)CCCCCC(=O)OC(CCCCCCC)CCCCCCC)COC(=O)CCC(CCCCCC)OC(=O)NCCN1CCCC1)OCCCC/C=C\CC` (stereo not shown) [Compound 7-36, 1-(3-((4,4-bis(((Z)-oct-5-en-1-yl)oxy)butanoyl)oxy)-2-(((4-(((2-(pyrrolidin-1-yl)ethyl)carbamoyl)oxy)decanoyl)oxy)methyl)propyl) 7-(pentadecan-8-yl) heptanedioate] the same measures were 53.80 nm, 0.04, 1.5% and 98.2%.
As to `CCCCCCCCOC(CCC(=O)OCC(COC(=O)CCCCC(=O)OCCC(CCCCCC)CCCCCC)COC(=O)CCC(CCCCCC)OC(=O)NCCN1CCCC1)OCCCCCCCC` (stereo not shown) [Compound 7-17, 3-((4,4-bis(octyloxy)butanoyl)oxy)-2-(((4-(((2-(pyrrolidin-1-yl)ethyl)carbamoyl)oxy)decanoyl)oxy)methyl)propyl (3-hexylnonyl) adipate], in data set [1], the “Diameter (nm)” value is 57.11 nm and the PDI is on record as 0.09. In the data set with ALAS1 target site, the “% Editing in Liver (0.05 mpk)” value stood at 1.0%. Also, the “Encapsulation Efficiency (%)” value in data set [2] turned out to be 98.5%.
